From ChEMBL document CHEMBL5352463, “Synthesis of novel glutarimide ligands for the E3 ligase substrate receptor Cereblon (CRBN): Investigation of their binding mode and antiproliferative effects against myeloma cell lines” (Eur J Med Chem, 2023) come the findings set out here.

The subject of one series is MOLP-8. Description: cells. As to conditions: Homo sapiens, MOLP-8, 48 h.
The subject of the next series is KMS-12-PE. Description: Antiproliferative activity against human KMS-12-PE cells assessed as inhibition of cell proliferation incubated for 48 hrs by CellTiter Glo luminescence based […]. The class given is functional.
For series [1], the target named is Protein cereblon (Homo sapiens) (UniProt Q96SW2). Description: Binding affinity to human CRBN thalidomide binding domain by microscale thermophoresis analysis. Background: In MST a laser heats a spot of the sample, and binding alters the fluorescence response.
Sequence of Protein cereblon (Homo sapiens) (Q96SW2 whole entry, the tested form may be a part): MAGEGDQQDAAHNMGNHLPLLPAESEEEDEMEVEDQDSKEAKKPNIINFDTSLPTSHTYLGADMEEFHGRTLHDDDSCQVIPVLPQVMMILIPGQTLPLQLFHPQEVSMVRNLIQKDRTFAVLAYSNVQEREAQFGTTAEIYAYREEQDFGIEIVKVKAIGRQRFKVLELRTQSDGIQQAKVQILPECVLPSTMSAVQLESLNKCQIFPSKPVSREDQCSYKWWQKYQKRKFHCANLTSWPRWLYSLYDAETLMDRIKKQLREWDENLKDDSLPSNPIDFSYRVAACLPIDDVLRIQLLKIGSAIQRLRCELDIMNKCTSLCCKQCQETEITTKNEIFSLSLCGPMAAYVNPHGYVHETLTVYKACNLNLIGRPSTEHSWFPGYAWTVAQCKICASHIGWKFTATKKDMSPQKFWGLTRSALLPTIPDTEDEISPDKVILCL
A short description of series [2]: Cytotoxicity against PBMC (unknown origin) cells assessed as inhibition of cell growth incubated for 48 hrs by CellTiter Glo luminescence based […]. The format is toxicity. Background: In ATP-based viability assays light output follows the ATP content of the culture.

The source made the active and inactive calls. No cut-off for these calls is given here.

Description for MOLP-8: Antiproliferative activity against human MOLP8 cells assessed as inhibition of cell proliferation incubated for 48 hrs by CellTiter Glo luminescence based MTT assay

Turning to `O=C1CCC(CSc2ncccn2)C(=O)N1` (stereo unspecified), the IC50 in the series on MOLP-8 was determined as 23.9 µM; in the series on KMS-12-PE, 36.7 µM.

Turning to `Cn1cnnc1SCC1CCC(=O)NC1=O` (stereo unspecified), the IC50 in the series on MOLP-8 and in the series on KMS-12-PE was over 100 µM throughout.

As to `COc1ccc(CS(=O)(=O)CC2CCC(=O)NC2=O)cc1` (stereo unspecified), the IC50 was found to be 6.27 µM in the series on MOLP-8 and 5.88 µM in the series with KMS-12-PE.

Turning to `O=C1CCC(CSc2ccccn2)C(=O)N1` (stereo unspecified), the IC50 came to 27.4 µM in the series with MOLP-8 and 13.3 µM in the series on KMS-12-PE.

Consider `COc1ccc(CSCC2CCC(=O)NC2=O)cc1` (stereo unspecified), for which the values for the IC50 in the series on MOLP-8 and in the series with KMS-12-PE were 73.2 µM and over 100 µM, respectively.

On to `CN1C(=O)CCC(CSc2ccc(Cl)cc2)C1=O` (stereo unspecified), for which the IC50 with MOLP-8 was 80.8 µM; with KMS-12-PE, 45.5 µM. Further, the result in series [1] was inactive.

Turning to `Nc1cccc(SCC2CCC(=O)NC2=O)c1` (stereo unspecified), the IC50 at 48 h in series [2] is over 200 µM. Besides, the IC50 with MOLP-8 is 41.2 µM; in the series on KMS-12-PE, over 90 µM.

In the case of `CN1C(=O)CCC(CSc2ccccc2)C1=O` (stereo unspecified), the IC50 in the series on MOLP-8 was 85.9 µM; in the series with KMS-12-PE it was over 100 µM. For the same molecule, the result in series [1] was inactive.

Turning to `CC(=O)Nc1ccccc1SCC1CCC(=O)NC1=O` (stereo unspecified), it took 27.4 µM to reach half-maximal inhibition in the series on MOLP-8 (IC50).

As to `O=C1CCC(CSc2cccc([N+](=O)[O-])c2)C(=O)N1` (stereo unspecified), the IC50 was determined as 15.9 µM with MOLP-8 and 13.6 µM with KMS-12-PE.

In the series on MOLP-8, `O=C1CCC(CSc2ccc([N+](=O)[O-])cc2)C(=O)N1` (stereo unspecified) gave an IC50 of 8.43 µM.

For `O=C1CCC(CSc2ccccc2[N+](=O)[O-])C(=O)N1` (stereo unspecified), the IC50 is 12.8 µM with MOLP-8 and 13.3 µM in the series on KMS-12-PE.

As to `O=C1CCC(CS(=O)(=O)c2ccc(F)cc2)C(=O)N1` (stereo unspecified), the IC50 in the series on MOLP-8 was found to be 5.8 µM; with KMS-12-PE, 6.45 µM.

With `O=C1CCC(CS(=O)(=O)c2ccc(Cl)cc2)C(=O)N1` (stereo unspecified), the IC50 in the series with MOLP-8 is 6.81 µM; in the series on KMS-12-PE it was 5.9 µM.

Consider `Cc1ccnc(SCC2CCC(=O)NC2=O)n1` (stereo unspecified), for which the IC50 amounted to 11.9 µM in the series with MOLP-8 and 36.8 µM with KMS-12-PE.

`O=C1CCC(CSCc2ccccc2)C(=O)N1` (stereo unspecified) had an IC50 with MOLP-8 of over 100 µM.

As to `Cc1cc(C)c(SCC2CCC(=O)NC2=O)c(C)c1` (stereo unspecified), the figures for the IC50 in the series on MOLP-8 and in the series on KMS-12-PE were 21 µM and 23.1 µM, respectively.

For the molecule `O=C1CCC(CSc2ccc(Br)cc2)C(=O)N1` (stereo unspecified), the figures for the IC50 with MOLP-8 and with KMS-12-PE were 18.3 µM and 12.9 µM, respectively.

`O=C1CCC(CS(=O)(=O)Cc2ccccc2)C(=O)N1` (stereo unspecified): the IC50 with MOLP-8 was determined as 5.52 µM; in the series with KMS-12-PE, 5.17 µM.

Regarding `CC(=O)Nc1ccc(SCC2CCC(=O)NC2=O)cc1` (stereo unspecified), in the series with MOLP-8, the IC50 came to 38.3 µM.

Turning to `O=C1CCC(CSc2ccccc2C(=O)O)C(=O)N1` (stereo unspecified), the IC50 in the series with MOLP-8 and with KMS-12-PE was over 100 µM throughout. Moreover, in series [1], the result was inactive.

For the molecule `Nc1ccc(SCC2CCC(=O)NC2=O)cc1` (stereo unspecified), the IC50 at 48 h in series [2] was over 200 µM. The IC50 was 44.3 µM in the series on MOLP-8 and over 90 µM in the series on KMS-12-PE.

Take `O=C1CCC(CSc2ccccc2)C(=O)N1` (stereo unspecified): the IC50 in the series with MOLP-8 was 40 µM; with KMS-12-PE, 36.4 µM.

Turning to `Cc1ccc(SCC2CCC(=O)NC2=O)cc1` (stereo unspecified), the figures for the IC50 in the series with MOLP-8 and in the series on KMS-12-PE were 38.1 µM and 40 µM, respectively.

`O=C1CCC(SCc2ccccc2)C(=O)N1` (stereo unspecified): the IC50 with MOLP-8 was over 100 µM.

For the molecule `Nc1ccccc1SCC1CCC(=O)NC1=O` (stereo unspecified), the IC50 at 48 h in series [2] turned out to be 71.8 µM. Besides, the figures for the IC50 in the series on MOLP-8 and in the series with KMS-12-PE were 32.3 µM and 38.5 µM, respectively.

Consider `O=C1CCC(N2C(=O)c3ccccc3C2=O)C(=O)N1` (stereo unspecified) [THALIDOMIDE], for which the IC50 with MOLP-8 and in the series on KMS-12-PE was over 75 µM each time.

For `O=C1CCC(CS(=O)(=O)c2ccccc2)C(=O)N1` (stereo unspecified), the IC50 in the series on MOLP-8 is 5.72 µM; in the series on KMS-12-PE, 6 µM.

`COC(=O)c1ccccc1SCC1CCC(=O)NC1=O` (stereo unspecified): the IC50 was found to be 19.8 µM with MOLP-8 and 32.6 µM in the series with KMS-12-PE.

For `O=C1CCC(CSc2ccc(Cl)cc2)C(=O)N1` (stereo unspecified), the IC50 was 20.5 µM with MOLP-8 and 16.2 µM with KMS-12-PE.

As for `CC(=O)Nc1cccc(SCC2CCC(=O)NC2=O)c1` (stereo unspecified), it took 49.5 µM to reach half-maximal inhibition with MOLP-8 (IC50).

As to `Cc1ccc(S(=O)(=O)CC2CCC(=O)NC2=O)cc1` (stereo unspecified), the IC50 in the series with MOLP-8 amounted to 5.3 µM; with KMS-12-PE, 6.12 µM.

`O=C1CCC(CSc2ccc(F)cc2)C(=O)N1` (stereo unspecified): the IC50 with MOLP-8 is 32 µM; in the series with KMS-12-PE it was 29.8 µM.

What is called IC50 is the concentration that inhibits the measured activity by half.
